In ChEMBL document CHEMBL1201862, “PubChem BioAssay data set” (2004):
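Growth conditions: 96-well plates. Treatment: test compound, 48 hours, 5 concentrations. Analysis: linear interpolation between bracketing concentrations; unreached endpoints set to highest concentration. Abbreviation: GI50, concentration required for 50% inhibition of growth.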 The source made the active and inactive calls. No stated cut-off is given here; in the data, active = GI50 up to about 1.1 µM and inactive = higher.

Assays:
Test in all cases: inhibition of tumour cell growth, NCI panel, 48 h
[1] = system: 786-0
[2] = system: A549
[3] = system: ACHN
[4] = system: CAKI-1
[5] = system: CCRF-CEM
[6] = system: COLO 205
[7] = system: DLD-1
[8] = system: DMS-114
[9] = system: DMS-273
[10] = system: EKVX
[11] = system: HCT-116
[12] = system: HCT-15
[13] = system: HL-60
[14] = system: HOP-18
[15] = system: HOP-62
[16] = system: HOP-92
[17] = system: HT-29
[18] = system: IGROV-1
[19] = system: K562
[20] = system: KM-20L2
[21] = system: KM12
[22] = system: LOX IMVI
[23] = system: LXFL 529
[24] = system: M14
[25] = system: MOLT-4
[26] = system: NCI-H226
[27] = system: NCI-H23
[28] = system: NCI-H460
[29] = system: NCI-H522
[30] = system: OVCAR-3
[31] = system: OVCAR-4
[32] = system: OVCAR-5
[33] = system: OVCAR-8
[34] = system: RPMI-8226
[35] = system: RXF 393
[36] = system: RXF 631
[37] = system: SF-268
[38] = system: SF-295
[39] = system: SF-539
[40] = system: SK-MEL-28
[41] = system: SK-MEL-2
[42] = system: SK-MEL-5
[43] = system: SK-OV-3
[44] = system: SN12C
[45] = system: SNB-19
[46] = system: SNB-75
[47] = system: SR
[48] = system: SW-620
[49] = system: TK-10
[50] = system: U-251
[51] = system: UACC-257
[52] = system: UACC-62
[53] = system: UO-31
[54] = system: XF498
[55] = system: A498
[56] = system: HCC 2998
[57] = system: M19-MEL
[58] = system: Malme-3M
[59] = system: SNB-78

N#CC(C#N)=CSc1ccccc1
GI50 [1]: 16.7 µM (inactive) | GI50 [2]: 19.6 µM (inactive) | GI50 [3]: 30.5 µM (inactive) | GI50 [4]: 26.2 µM (inactive) | GI50 [5]: 1.52 µM (inactive) | GI50 [6]: 24.5 µM (inactive) | GI50 [7]: 24 µM (inactive) | GI50 [8]: 17.7 µM (inactive) | GI50 [9]: 21.4 µM (inactive) | GI50 [10]: 48.2 µM (inactive) | GI50 [11]: 23 µM (inactive) | GI50 [12]: 22.1 µM | GI50 [13]: 11.9 µM (inactive) | GI50 [14]: > 100 µM (inactive) | GI50 [15]: 55 µM (inactive) | GI50 [16]: 50.2 µM (inactive) | GI50 [17]: 28.6 µM (inactive) | GI50 [18]: 17.3 µM (inactive) | GI50 [19]: 80.7 µM (inactive) | GI50 [20]: 32.7 µM (inactive) | GI50 [21]: 19.7 µM (inactive) | GI50 [22]: 12.6 µM (inactive) | GI50 [23]: 24.3 µM (inactive) | GI50 [24]: 22.9 µM (inactive) | GI50 [25]: 13.2 µM (inactive) | GI50 [26]: 19.5 µM (inactive) | GI50 [27]: 57.4 µM (inactive) | GI50 [28]: 34 µM (inactive) | GI50 [29]: 11.8 µM (inactive) | GI50 [30]: 34.4 µM (inactive) | GI50 [31]: 47 µM (inactive) | GI50 [32]: 26.3 µM (inactive) | GI50 [33]: 17.8 µM (inactive) | GI50 [34]: 48 µM (inactive) | GI50 [35]: 17.2 µM (inactive) | GI50 [36]: 20.6 µM (inactive) | GI50 [37]: 13.4 µM (inactive) | GI50 [38]: 35 µM (inactive) | GI50 [39]: 20 µM (inactive) | GI50 [40]: 23.8 µM (inactive) | GI50 [41]: 18.7 µM (inactive) | GI50 [42]: 28.5 µM (inactive) | GI50 [43]: 59 µM (inactive) | GI50 [44]: 19.6 µM (inactive) | GI50 [45]: 60 µM (inactive) | GI50 [46]: 24.1 µM (inactive) | GI50 [47]: 7.6 µM (inactive) | GI50 [48]: 32.4 µM (inactive) | GI50 [49]: 38 µM (inactive) | GI50 [50]: 16.5 µM (inactive) | GI50 [51]: 46.2 µM (inactive) | GI50 [52]: 24.2 µM (inactive) | GI50 [53]: 13.3 µM (inactive) | GI50 [54]: 53.7 µM (inactive)

COC(=O)C12C3C4C1C1C2C3C41C(=O)O (stereo not given)
GI50 [1]: > 100 µM (inactive) | GI50 [55]: > 100 µM (inactive) | GI50 [2]: > 100 µM (inactive) | GI50 [3]: > 100 µM (inactive) | GI50 [4]: > 100 µM (inactive) | GI50 [5]: > 100 µM (inactive) | GI50 [6]: > 100 µM (inactive) | GI50 [7]: > 100 µM (inactive) | GI50 [8]: > 100 µM (inactive) | GI50 [10]: > 100 µM (inactive) | GI50 [56]: > 100 µM (inactive) | GI50 [12]: > 100 µM | GI50 [13]: > 100 µM (inactive) | GI50 [14]: > 100 µM (inactive) | GI50 [15]: > 100 µM (inactive) | GI50 [16]: > 100 µM (inactive) | GI50 [17]: > 100 µM (inactive) | GI50 [18]: > 100 µM (inactive) | GI50 [19]: > 100 µM (inactive) | GI50 [20]: > 100 µM (inactive) | GI50 [23]: > 100 µM (inactive) | GI50 [24]: > 100 µM (inactive) | GI50 [57]: > 100 µM (inactive) | GI50 [25]: > 100 µM (inactive) | GI50 [58]: > 100 µM (inactive) | GI50 [26]: > 100 µM (inactive) | GI50 [27]: > 100 µM (inactive) | GI50 [28]: > 100 µM (inactive) | GI50 [30]: > 100 µM (inactive) | GI50 [31]: > 100 µM (inactive) | GI50 [32]: > 100 µM (inactive) | GI50 [33]: > 100 µM (inactive) | GI50 [34]: > 100 µM (inactive) | GI50 [35]: > 100 µM (inactive) | GI50 [36]: > 100 µM (inactive) | GI50 [37]: > 100 µM (inactive) | GI50 [38]: > 100 µM (inactive) | GI50 [39]: > 100 µM (inactive) | GI50 [40]: > 100 µM (inactive) | GI50 [42]: > 100 µM (inactive) | GI50 [43]: > 100 µM (inactive) | GI50 [44]: > 100 µM (inactive) | GI50 [45]: > 100 µM (inactive) | GI50 [59]: > 100 µM (inactive) | GI50 [48]: > 100 µM (inactive) | GI50 [49]: > 100 µM (inactive) | GI50 [50]: > 100 µM (inactive) | GI50 [51]: > 100 µM (inactive) | GI50 [52]: > 100 µM (inactive) | GI50 [53]: > 100 µM (inactive) | GI50 [54]: > 100 µM (inactive)
